Experimental data taken from BindingDB's records for doi:10.1021/np200603g (Yunnan University, 2011).

Molecular target: T1, Programmed cell death protein 4 (Homo sapiens, UniProt Q53EL6)
T1 sequence (Q53EL6 whole entry): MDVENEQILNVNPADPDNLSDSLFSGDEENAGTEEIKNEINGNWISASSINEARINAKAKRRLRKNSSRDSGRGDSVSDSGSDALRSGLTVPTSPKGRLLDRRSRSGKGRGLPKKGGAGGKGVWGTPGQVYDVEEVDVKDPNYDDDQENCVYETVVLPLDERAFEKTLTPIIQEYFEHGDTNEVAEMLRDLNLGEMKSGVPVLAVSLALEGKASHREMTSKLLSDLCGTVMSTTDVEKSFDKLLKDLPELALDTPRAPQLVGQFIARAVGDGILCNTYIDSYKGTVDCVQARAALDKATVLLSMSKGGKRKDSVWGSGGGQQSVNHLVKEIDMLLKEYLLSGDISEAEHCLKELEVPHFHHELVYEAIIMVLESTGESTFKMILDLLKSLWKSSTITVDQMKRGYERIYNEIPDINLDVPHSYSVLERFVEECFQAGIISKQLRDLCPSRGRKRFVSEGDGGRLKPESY
Test: Stabilization of Pdcd4 expressed in human HEK293 cells assessed as inhibition of TPA-induced degradation by luciferase reporter assay

Work on `Nc1ncnc2c1ccn2[C@@H]1O[C@H](CO)[C@@H](O)[C@H]1O` ['2-(4-AMINO-PYRROLO[2,3-D]PYRIMIDIN-7-YL)-5-HYDROXYMETHYL-TETRAHYDRO-FURAN-3,4-DIOL] yielded an IC50 of 880 nM.
